Source: patent publication US20230009608A1, “GRK2 INHIBITORS AND USES THEREOF” (Cygnal Therapeutics, Inc., priority 2020, published 2023)
Read-outs that look alike come from different tables or passages of the source.

Key:
[1] = system: PAXF1657 control empty vector cell line; assay: 7-day proliferation assay, PAXF1657 control empty vector cell line (Example 9); format: cell-based; conditions: 168 h; Cell Line: PAXF1657 empty vector (EV) cell line; 7-day; read-out: C: 7-day proliferation assay: IC50 GeoMean
Protocol: In order to identify compounds specific for GRK2, we generated two isogenic cell line pairs of the pancreatic cancer cell line PAXF1657, a pair of cells stably overexpressing GRK2 cDNA or the control empty vector and a cell line pair of PAXF1657 GRK2 knockout clonal cells versus non-targeting control clonal cells.
Proliferation Assay: Cellular anti-proliferative activity of compounds was assessed by using the pancreatic cancer cell line, PAXF1657, stably overexpressing GRK2 cDNA or the control empty vector, as well as the parental urinary bladder cancer cell line, 5637. In addition, we also took advantage of GRK2 knockout cell lines that were generated via CRISPR. Cell lines were seeded into tissue culture treated, white-walled, 96-well plates at a density of 500 cells/well in RPMI1640 media supplemented with 10% H.I. FBS and penicillin/streptomycin. Plates were incubated overnight at 37° C., 5% CO2 to allow cells to adhere to the wells. GRK2 inhibitors were added to the cells using a 10-point dilution series with a final concentration ranging from 30 μM-0.0002 μM in 0.3% DMSO. At the time of compound addition, a set of plates, that were not treated with compounds, were collected and cell viability was measured using CellTiter-Glo (Promega). CellTiter-Glo reagent was added to the designed plates and luminescence was measuring using a Biotek Synergy plate reader. The compound treated cells were incubated for 3 days at 37° C., 5% CO2. The media was then aspirated from each well and replaced with fresh media containing GRK2 inhibitors. The compound treated cells were then incubated for an additional 4 days at 37° C., 5% CO2. Cell viability was assessed and at end of the 7-day compound treatment by CellTiterGlo.

GRK2 = molecular target: T1, GRK2 (Homo sapiens, UniProt P25098); assay: ADPGlo GRK2 Inhibition Assay (Example 8); format: biochemical
T1 construct: purchased SignalChem A14-10G
T1 sequence (P25098 1-689): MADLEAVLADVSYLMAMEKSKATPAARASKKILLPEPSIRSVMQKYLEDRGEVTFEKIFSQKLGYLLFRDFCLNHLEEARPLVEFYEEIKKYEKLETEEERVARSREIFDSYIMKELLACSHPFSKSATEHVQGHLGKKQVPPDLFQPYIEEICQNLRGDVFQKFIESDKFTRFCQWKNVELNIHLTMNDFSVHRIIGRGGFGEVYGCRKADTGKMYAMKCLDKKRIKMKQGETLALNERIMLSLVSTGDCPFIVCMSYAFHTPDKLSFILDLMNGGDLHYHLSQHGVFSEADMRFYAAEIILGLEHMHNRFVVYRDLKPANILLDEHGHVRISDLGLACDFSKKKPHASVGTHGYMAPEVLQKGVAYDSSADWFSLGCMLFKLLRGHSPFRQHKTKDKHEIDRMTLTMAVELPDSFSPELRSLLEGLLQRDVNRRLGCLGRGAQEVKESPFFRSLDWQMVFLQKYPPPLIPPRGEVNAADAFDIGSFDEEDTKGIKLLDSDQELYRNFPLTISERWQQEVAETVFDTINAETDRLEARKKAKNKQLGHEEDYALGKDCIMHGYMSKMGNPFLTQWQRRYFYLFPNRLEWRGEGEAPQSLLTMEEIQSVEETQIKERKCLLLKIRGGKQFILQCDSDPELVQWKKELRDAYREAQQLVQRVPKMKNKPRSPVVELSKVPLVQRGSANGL
In short: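 GRK2 (15 nM 2× enzyme solution) was preincubated 15 min with compound, then reacted 180 min at room temperature with 2× mix of 20 μM ATP plus GRKtide in HEPES pH 7.5, MgCl2, Tween-20, DTT. ADP was detected by ADP-Glo luminescence. Percent inhibition was normalised to enzyme and no-enzyme controls, with dose-response curves from threefold dilutions starting at 100 μM.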

[2] = ADPGlo GRK2 enzyme assay, read-out: A: Enzymatic GRK2: IC50 (nM) (Example 8)
[3] = 7.5 nM GRK2, 10 μM ATP, ADP-Glo, read-out: GRK2 IC50 (nM) (Example 8)

Compound	IC50 [1] [nM]	IC50 (GRK2; [2]) [nM]	IC50 (GRK2; [3]) [nM]	IC50 (GRK2; Enzyme Assay A, ADPGlo (Example 8), read-out: A: Enzymatic GRK2: IC50 (nM) (Example 8))
COc1cccc([C@@H](C)NC(=O)c2cccc(NCc3nnc(-c4ccncc4)n3C)c2)c1	> 30000	7.61		
C[C@H](NC(=O)c1cccc(NCc2nnc(-c3ccncc3)n2C)c1)c1ncccc1Cl	> 1850	2.97		
C[C@@H](NC(=O)c1cccc(NCc2nnc(-c3ccncc3)n2C)c1)c1ncccc1Cl	> 4780	11.4		
COc1ncc(Br)cc1CNC(=O)c1cccc(NCc2nnc(-c3ccncc3)[nH]2)c1	21700	10.2		
Cc1ccc(C#N)cc1CNC(=O)c1cccc(NCc2nnc(-c3ccncn3)n2CCO)c1	> 30000	3.22		
COc1ncc(Br)cc1CNC(=O)c1cccc(NCc2nnc(-c3ccncn3)n2CCO)c1	> 30000	4.12		
Cc1ccc(C#N)cc1CNC(=O)c1cccc(NCc2nnc(-c3ccncc3)n2CCO)c1	> 4600	4.82		
COc1ncc(Br)cc1CNC(=O)c1cccc(NCc2nnc(-c3ccncc3)n2CCO)c1	15100	7.15		
COc1cccc([C@H](C)NC(=O)c2cccc(NCc3nnc(-c4ccncc4)[nH]3)c2)c1	> 30000	17.5		
Cn1c(CNc2cccc(C(=O)N[C@@H]3CCOc4ccccc43)c2)nnc1-c1ccncn1	227	23		
Cc1cccnc1[C@H](C)NC(=O)c1cccc(NCc2nnc(-c3ccncn3)n2C)c1	> 30000	15		
Cc1cccnc1[C@@H](C)NC(=O)c1cccc(NCc2nnc(-c3ccncn3)n2C)c1	3790	26		
CN1CC[C@@H](NC(=O)c2cccc(NCc3nnc(-c4ccncn4)n3C)c2)c2ccccc21	> 30000	21		
Cn1c(CNc2cccc(C(=O)N[C@H]3COCc4ccccc43)c2)nnc1-c1ccncn1	> 11800	66		
Cn1c(CNc2cccc(C(=O)NC3COc4cc(F)ccc43)c2)nnc1-c1ccncn1 (stereo not shown)	547	35.4		
COc1ccc(F)c(CNC(=O)c2cccc(NCc3nnc(-c4ccncn4)n3C)c2)c1	917	20		
C#Cc1ccc(CNC(=O)c2cccc(NCc3nnc(-c4ccncn4)n3C)c2)c(F)c1	413	12		
Cn1c(CNc2cccc(C(=O)NC3CCS(=O)(=O)c4ccccc43)c2)nnc1-c1ccncn1 (stereo not shown)	2790	18.2		
CN1Cc2ccccc2C(NC(=O)c2cccc(NCc3nnc(-c4ccncn4)n3C)c2)C1=O (stereo not shown)	> 1900	63.5		

Compound	IC50 [1] [nM]	IC50 (GRK2; [2]) [nM]	IC50 (GRK2; [3]) [nM]	IC50 (GRK2; Enzyme Assay A, ADPGlo (Example 8), read-out: A: Enzymatic GRK2: IC50 (nM) (Example 8))
Cn1c(CNc2cccc(C(=O)NCc3cccc4c3NC(=O)CO4)c2)nnc1-c1ccncn1	2990	9.78		
Cn1c(CNc2cccc(C(=O)NC3CCS(=O)(=O)c4ccc(F)cc43)c2)nnc1-c1ccncn1 (stereo not shown)	8680	65.4		
COc1ncc(Br)cc1CNC(=O)c1cccc(NCc2nnc(-c3ccncn3)n2C)c1	610	21.5		
Cc1cc(C)n(C)c(=O)c1CNC(=O)c1cccc(NCc2nnc(-c3ccncn3)n2C)c1	1700	9.97		
Cn1c(CNc2cccc(C(=O)NCc3ccccc3S(=O)(=O)N3CCCC3)c2)nnc1-c1ccncn1	2170	26.9		
Cn1c(CNc2cccc(C(=O)NCc3cccnc3Cl)c2)nnc1-c1ccncn1	506	27.6		
Cc1cc(C)c(CNC(=O)c2cccc(NCc3nnc(-c4ccncn4)n3C)c2)cn1	803	17.8		
CC(NC(=O)c1cccc(NCc2nnc(-c3ccncn3)n2C)c1)c1ncccc1F (stereo not shown)	2660	69		
C#Cc1ccccc1CNC(=O)c1cccc(NCc2nnc(-c3ccncn3)n2C)c1	2320	46.4		
Cc1nccnc1C(C)NC(=O)c1cccc(NCc2nnc(-c3ccncn3)n2C)c1 (stereo not shown)	> 12500	61		
Cc1nncc(CNC(=O)c2cccc(NCc3nnc(-c4ccncn4)n3C)c2)c1C	1460	14.3		
Cn1c(CNc2cccc(C(=O)NCc3cc(C#N)ccc3F)c2)nnc1-c1ccncn1	> 1280	17.6		
Cn1c(CNc2cccc(C(=O)NC3COc4ccc(F)cc43)c2)nnc1-c1ccncn1 (stereo not shown)	1260	26.6		
CN(C)c1ccccc1CNC(=O)c1cccc(NCc2nnc(-c3ccncn3)n2C)c1	1610	14.8		
Cn1c(CNc2cccc(C(=O)NCc3cccc4c3OCO4)c2)nnc1-c1ccncn1	681	13.2		
COc1nc(C)ccc1CNC(=O)c1cccc(NCc2nnc(-c3ccncn3)n2C)c1	> 30000	30.1		
COc1cc(F)ccc1CNC(=O)c1cccc(NCc2nnc(-c3ccncn3)n2C)c1	28000	24.7		
Cn1c(CNc2cccc(C(=O)NC3CC(O)c4ccccc43)c2)nnc1-c1ccncn1 (stereo not shown)	> 30000	65		
COc1ccc(C)nc1CNC(=O)c1cccc(NCc2nnc(-c3ccncn3)n2C)c1	> 12400	67.5		

Compound	IC50 [1] [nM]	IC50 (GRK2; [2]) [nM]	IC50 (GRK2; [3]) [nM]	IC50 (GRK2; Enzyme Assay A, ADPGlo (Example 8), read-out: A: Enzymatic GRK2: IC50 (nM) (Example 8))
Cn1c(CNc2cccc(C(=O)NCc3cncc4c3CCC4)c2)nnc1-c1ccncn1	> 11700	15.3		
Cn1c(CNc2cccc(C(=O)NCc3ccccc3OCCO)c2)nnc1-c1ccncn1	> 6450	48.9		
Cn1c(CNc2cccc(C(=O)N[C@H](CO)c3cc(F)ccc3F)c2)nnc1-c1ccncn1	> 30000	43.4		
COc1ccccc1C(CO)NC(=O)c1cccc(NCc2nnc(-c3ccncn3)n2C)c1 (stereo not shown)	> 13000	45.4		
Cn1c(CNc2cccc(C(=O)NC(CO)c3ccc(F)cc3F)c2)nnc1-c1ccncn1 (stereo not shown)	3070	83.1		
Cn1c(CNc2cccc(C(=O)NC(CCO)c3ccccc3F)c2)nnc1-c1ccncn1 (stereo not shown)	536	35.6		
Cn1c(CNc2cccc(C(=O)NCc3ccccc3S(C)(=O)=O)c2)nnc1-c1ccncn1	1950	57.1		
COc1ccc(CNC(=O)c2cccc(NCc3nnc(-c4ccncn4)n3C)c2)c(OC)n1	797	37.2		
Cn1c(CNc2cccc(C(=O)NC3C(=O)NCc4ccccc43)c2)nnc1-c1ccncn1 (stereo not shown)	> 30000	38.1		
Cn1c(CNc2cccc(C(=O)NCc3cc(S(C)(=O)=O)ccc3F)c2)nnc1-c1ccncn1	> 16000	52		
Cc1nccn1-c1ncccc1CNC(=O)c1cccc(NCc2nnc(-c3ccncn3)n2C)c1	> 25800	58.8		
Cn1c(CNc2cccc(C(=O)NCc3ccccc3N3CCOCC3)c2)nnc1-c1ccncn1	3250	50		
Cn1c(CNc2cccc(C(=O)NCc3c(F)cccc3NS(C)(=O)=O)c2)nnc1-c1ccncn1	3250	9.42		
CC(C)NS(=O)(=O)c1ccccc1CNC(=O)c1cccc(NCc2nnc(-c3ccncn3)n2C)c1	> 15900	65.8		
Cn1cccc1CNC(=O)c1cccc(NCc2nnc(-c3ccncn3)n2C)c1 [compound 59]			9.5	
Cn1c(CNc2cccc(C(=O)NC3CCOc4cccnc43)c2)nnc1-c1ccncn1 (stereo not shown) [compound 60]			9.6	
Cc1nc(CNC(=O)c2cccc(NCc3nnc(-c4ccncn4)n3C)c2)cs1 [compound 61]			9.8	
Cn1c(CNc2cccc(C(=O)NC(CO)c3cc(F)ccc3F)c2)nnc1-c1ccncn1 (stereo not shown) [compound 62]			10	
Cc1csc(CNC(=O)c2cccc(NCc3nnc(-c4ccncn4)n3C)c2)n1 [drawing 283]				100
